The text below walks through data of the supplement of paper PMC10627819.

Holding throughout (assay): Bliss interaction score (quartile over a dose matrix) (fitness difference); higher = more antagonism (negative = synergy)
The subject of one assay is S. aureus DSM 20231. Summed up:
(§1)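 Growth was read as OD595 when cultures entered stationary phase, and each value was divided by the plate's robust no-drug mean and capped at 1. This normalised ratio is the fitness value, and fitness for each single drug came from the combination data. The Bliss score subtracts the expected fitness, taken as the product, from the observed fitness and is given as quartiles across technical, biological and donor/recipient replicates.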

For another assay, the system named is S. aureus Newman. Put shortly: as §1
The test system of another assay is S. pneumoniae D39V. Put shortly: as §1
For the next assay, the system named is B. subtilis 168. Summed up:
as §1

SMILES strings stand for the structures.
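Also: first quartile when negative (synergy) and third quartile when positive (antagonism).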

As to `CC[C@H]1OC(=O)[C@H](C)[C@@H](O[C@H]2C[C@@](C)(OC)[C@@H](O)[C@H](C)O2)[C@H](C)[C@@H](O[C@@H]2O[C@H](C)C[C@H](N(C)C)[C@H]2O)[C@](C)(OC)C[C@@H](C)C(=O)[C@H](C)[C@@H](O)[C@]1(C)O` [Clarithromycin] + CN[C@H](CC(C)C)C(=O)N[C@H]1C(=O)N[C@@H](CC(N)=O)C(=O)N[C@H]2C(=O)N[C@H]3C(=O)N[C@H](C(=O)N[C@H](C(=O)O)c4cc(O)cc(O)c4-c4cc3ccc4O)[C@H](O[C@H]3C[C@](C)(N)[C@@H](O)[C@H](C)O3)c3ccc(c(Cl)c3)Oc3cc2cc(c3O[C@@H]2O[C@H](CO)[C@@H](O)[C@H](O)[C@H]2O[C@H]2C[C@](C)(NCc3ccc(-c4ccc(Cl)cc4)cc3)[C@@H](O)[C@H](C)O2)Oc2ccc(cc2Cl)[C@H]1O [Oritavancin], the Bliss interaction score in the assay on S. aureus DSM 20231 is -0.0389; in the assay with S. aureus Newman it was -0.0471; in the assay on S. pneumoniae D39V, 0.0635; in the assay on B. subtilis 168, 0.0293.

With `CC[C@H]1OC(=O)[C@H](C)[C@@H](O[C@H]2C[C@@](C)(OC)[C@@H](O)[C@H](C)O2)[C@H](C)[C@@H](O[C@@H]2O[C@H](C)C[C@H](N(C)C)[C@H]2O)[C@](C)(OC)C[C@@H](C)C(=O)[C@H](C)[C@@H](O)[C@]1(C)O` [Clarithromycin] + CO[C@@H]1[C@@H](OC(N)=O)[C@@H](O)[C@H](Oc2ccc3c(O)c(NC(=O)c4ccc(O)c(CC=C(C)C)c4)c(=O)oc3c2C)OC1(C)C [Novobiocin], the Bliss interaction score is -0.0522 in the assay with S. aureus DSM 20231, 0.0643 in the assay on S. aureus Newman, -0.0569 in the assay on S. pneumoniae D39V and 0.125 with B. subtilis 168.

As to `CC[C@H]1OC(=O)[C@H](C)[C@@H](O[C@H]2C[C@@](C)(OC)[C@@H](O)[C@H](C)O2)[C@H](C)[C@@H](O[C@@H]2O[C@H](C)C[C@H](N(C)C)[C@H]2O)[C@](C)(OC)C[C@@H](C)C(=O)[C@H](C)[C@@H](O)[C@]1(C)O` [Clarithromycin] + CO[C@@]12[C@H](COC(N)=O)C3=C(C(=O)C(C)=C(N)C3=O)N1C[C@@H]1N[C@@H]12 [MitomycinC], the Bliss interaction score was -0.0723 in the assay on S. aureus DSM 20231, 0.0537 with S. aureus Newman, -0.0527 in the assay with S. pneumoniae D39V and 0.036 with B. subtilis 168.

In the case of `CC[C@H]1OC(=O)[C@H](C)[C@@H](O[C@H]2C[C@@](C)(OC)[C@@H](O)[C@H](C)O2)[C@H](C)[C@@H](O[C@@H]2O[C@H](C)C[C@H](N(C)C)[C@H]2O)[C@](C)(OC)C[C@@H](C)C(=O)[C@H](C)[C@@H](O)[C@]1(C)O` [Clarithromycin] + COc1cc(Cc2cnc(N)nc2N)cc(OC)c1OC [Trimethoprim], the Bliss interaction score in the assay with S. aureus DSM 20231 is 0.0723; with S. aureus Newman, 0.0667; in the assay on S. pneumoniae D39V, -0.0331; in the assay with B. subtilis 168, -0.193.

For the molecule `CC[C@H]1OC(=O)[C@H](C)[C@@H](O[C@H]2C[C@@](C)(OC)[C@@H](O)[C@H](C)O2)[C@H](C)[C@@H](O[C@@H]2O[C@H](C)C[C@H](N(C)C)[C@H]2O)[C@](C)(OC)C[C@@H](C)C(=O)[C@H](C)[C@@H](O)[C@]1(C)O` [Clarithromycin] + N[C@@H]1CONC1=O [CycloserineD], the Bliss interaction score is -0.127 in the assay on S. aureus DSM 20231, -0.0691 with S. aureus Newman, 0.136 in the assay with S. pneumoniae D39V and 0.077 in the assay on B. subtilis 168.

On to `CC[C@H]1OC(=O)[C@H](C)[C@@H](O[C@H]2C[C@@](C)(OC)[C@@H](O)[C@H](C)O2)[C@H](C)[C@@H](O[C@@H]2O[C@H](C)C[C@H](N(C)C)[C@H]2O)[C@](C)(OC)C[C@@H](C)C(=O)[C@H](C)[C@@H](O)[C@]1(C)O` [Clarithromycin] + O=C(O)[C@H]1/C(=C/CO)O[C@@H]2CC(=O)N21 [Clavulanic], for which the Bliss interaction score with S. aureus DSM 20231 is -0.212; in the assay with S. aureus Newman it was 0.277; in the assay with S. pneumoniae D39V it was -0.059; in the assay on B. subtilis 168 it was 0.047.

`CC[C@H]1OC(=O)[C@H](C)[C@@H](O[C@H]2C[C@@](C)(OC)[C@@H](O)[C@H](C)O2)[C@H](C)[C@@H](O[C@@H]2O[C@H](C)C[C@H](N(C)C)[C@H]2O)[C@](C)(OC)C[C@@H](C)C(=O)[C@H](C)[C@@H](O)[C@]1(C)O` [Clarithromycin] + Oc1cc(Cl)ccc1Oc1ccc(Cl)cc1Cl [Triclosan]: the Bliss interaction score in the assay with S. aureus DSM 20231 is -0.0868; with S. aureus Newman, 0.032; in the assay on S. pneumoniae D39V, 0.0396; in the assay on B. subtilis 168, 0.0259.

Consider `CCC[C@@H]1C[C@@H](C(=O)N[C@@H]([C@H]2O[C@H](SC)[C@H](O)[C@@H](O)[C@H]2O)[C@H](C)Cl)N(C)C1` [Clindamycin] + CC1(C)S[C@@H]2[C@H](NC(=O)Cc3ccccc3)C(=O)N2[C@H]1C(=O)O [PenicillinG], for which the Bliss interaction score in the assay on S. aureus DSM 20231 was 0.0609; in the assay on S. aureus Newman, -0.0587; in the assay with S. pneumoniae D39V it was 0.0611; in the assay on B. subtilis 168, 0.0383.

`CCC[C@@H]1C[C@@H](C(=O)N[C@@H]([C@H]2O[C@H](SC)[C@H](O)[C@@H](O)[C@H]2O)[C@H](C)Cl)N(C)C1` [Clindamycin] + CC(=O)O[C@H]1C[C@@]2(C)[C@@H](C[C@@H](O)[C@H]3[C@@]4(C)CC[C@@H](O)[C@@H](C)[C@@H]4CC[C@@]32C)/C1=C(\CCC=C(C)C)C(=O)O [Fusidic acid]: the Bliss interaction score in the assay on S. aureus DSM 20231 was 0.0254; in the assay with S. aureus Newman it was 0.0307; in the assay with S. pneumoniae D39V it was 0.0662; with B. subtilis 168, 0.0418.

For `CCC[C@@H]1C[C@@H](C(=O)N[C@@H]([C@H]2O[C@H](SC)[C@H](O)[C@@H](O)[C@H]2O)[C@H](C)Cl)N(C)C1` [Clindamycin] + CC[C@H]1OC(=O)[C@H](C)C(=O)[C@H](C)[C@@H](O[C@@H]2O[C@H](C)C[C@H](N(C)C)[C@H]2O)[C@](C)(OC)C[C@@H](C)C(=O)[C@H](C)[C@H]2N(CCCCn3cnc(-c4cccnc4)c3)C(=O)O[C@]12C [Telithromycin], the Bliss interaction score in the assay with S. aureus DSM 20231 is 0.0256; with S. aureus Newman, -0.0812; with S. pneumoniae D39V, 0.106; with B. subtilis 168 it was 0.0609.

As to `CCC[C@@H]1C[C@@H](C(=O)N[C@@H]([C@H]2O[C@H](SC)[C@H](O)[C@@H](O)[C@H]2O)[C@H](C)Cl)N(C)C1` [Clindamycin] + CC[C@H]1OC(=O)[C@H](C)[C@@H](O[C@H]2C[C@@](C)(OC)[C@@H](O)[C@H](C)O2)[C@H](C)[C@@H](O[C@@H]2O[C@H](C)C[C@H](N(C)C)[C@H]2O)[C@](C)(O)C[C@@H](C)C(=O)[C@H](C)[C@@H](O)[C@]1(C)O [Erythromycin], the Bliss interaction score with S. aureus DSM 20231 was -0.0244; in the assay with S. aureus Newman it was -0.0542; in the assay on S. pneumoniae D39V it was 0.123; with B. subtilis 168, 0.0748.

`CCC[C@@H]1C[C@@H](C(=O)N[C@@H]([C@H]2O[C@H](SC)[C@H](O)[C@@H](O)[C@H]2O)[C@H](C)Cl)N(C)C1` [Clindamycin] + CN(C)[C@@H]1C(O)=C(C(N)=O)C(=O)[C@@]2(O)C(O)=C3C(=O)c4c(O)ccc(Cl)c4[C@@](C)(O)[C@H]3C[C@@H]12 [Clortetracycline]: the Bliss interaction score in the assay with S. aureus DSM 20231 was -0.0617; in the assay with S. aureus Newman, -0.191; in the assay on S. pneumoniae D39V, -0.0954; with B. subtilis 168, -0.212.

For `CCC[C@@H]1C[C@@H](C(=O)N[C@@H]([C@H]2O[C@H](SC)[C@H](O)[C@@H](O)[C@H]2O)[C@H](C)Cl)N(C)C1` [Clindamycin] + CN[C@H](CC(C)C)C(=O)N[C@H]1C(=O)N[C@@H](CC(N)=O)C(=O)N[C@H]2C(=O)N[C@H]3C(=O)N[C@H](C(=O)N[C@H](C(=O)O)c4cc(O)cc(O)c4-c4cc3ccc4O)[C@H](O[C@H]3C[C@](C)(N)[C@@H](O)[C@H](C)O3)c3ccc(c(Cl)c3)Oc3cc2cc(c3O[C@@H]2O[C@H](CO)[C@@H](O)[C@H](O)[C@H]2O[C@H]2C[C@](C)(NCc3ccc(-c4ccc(Cl)cc4)cc3)[C@@H](O)[C@H](C)O2)Oc2ccc(cc2Cl)[C@H]1O [Oritavancin], the Bliss interaction score in the assay with S. aureus DSM 20231 stood at 0.0257; with S. aureus Newman, 0.0703; in the assay on S. pneumoniae D39V, 0.0382; in the assay on B. subtilis 168, 0.0359.
